This assay concerns the target T1, human kinase Mps-1 (Homo sapiens, UniProt P33981).
T1 construct: N-terminally GST-tagged human full length recombinant Mps-1 kinase; purchased Invitrogen, Karslruhe, Germany PV4071
T1 sequence (P33981 1-857): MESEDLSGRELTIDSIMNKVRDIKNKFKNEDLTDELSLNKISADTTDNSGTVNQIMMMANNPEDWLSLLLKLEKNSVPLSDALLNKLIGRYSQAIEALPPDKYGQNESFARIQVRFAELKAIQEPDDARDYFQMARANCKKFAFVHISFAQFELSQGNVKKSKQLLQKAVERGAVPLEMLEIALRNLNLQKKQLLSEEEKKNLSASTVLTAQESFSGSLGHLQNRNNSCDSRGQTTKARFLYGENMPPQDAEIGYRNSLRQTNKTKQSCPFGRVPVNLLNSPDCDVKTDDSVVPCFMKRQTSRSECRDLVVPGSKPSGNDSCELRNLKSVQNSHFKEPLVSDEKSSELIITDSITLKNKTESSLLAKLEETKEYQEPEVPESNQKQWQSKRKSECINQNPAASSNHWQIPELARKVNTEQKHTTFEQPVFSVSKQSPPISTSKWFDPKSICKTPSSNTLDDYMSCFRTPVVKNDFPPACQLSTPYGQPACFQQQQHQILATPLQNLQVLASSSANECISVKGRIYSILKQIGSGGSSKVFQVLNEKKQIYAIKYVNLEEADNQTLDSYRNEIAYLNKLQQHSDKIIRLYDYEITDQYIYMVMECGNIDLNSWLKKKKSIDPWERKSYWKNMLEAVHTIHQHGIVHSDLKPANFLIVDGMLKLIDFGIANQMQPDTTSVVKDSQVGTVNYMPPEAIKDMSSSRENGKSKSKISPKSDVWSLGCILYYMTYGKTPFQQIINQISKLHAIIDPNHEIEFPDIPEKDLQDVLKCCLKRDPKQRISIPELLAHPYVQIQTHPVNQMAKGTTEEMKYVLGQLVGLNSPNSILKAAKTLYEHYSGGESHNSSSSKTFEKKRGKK
Briefly: Mps-1 kinase assay (HTRF). In kind it is biochemical. The note with it: lowATP; mean; read-out: Mps1 lowATP mean IC50. As to the method:
The human kinase Mps-1 phosphorylates a biotinylated substrate peptide. Detection of the phosphorylated product is achieved by homogenous time-resolved fluorescence resonance energy transfer (HTRF) from Europium-labelled anti-phospho-Serine/Threonine antibody as donor to streptavidin labelled with cross-linked allophycocyanin (SA-XLent) as acceptor. Compounds are tested for their inhibition of the kinase activity.
N-terminally GST-tagged human full length recombinant Mps-1 kinase (purchased from Invitrogen, Karslruhe, Germany, cat. no PV4071) was used. As substrate for the kinase reaction a biotinylated peptide of the amino-acid sequence PWDPDDADITEILG (C-terminus in amide form, purchased from Biosynthan GmbH, Berlin) was used.
For the assay 50 nl of a 100-fold concentrated solution of the test compound in DMSO was pipetted into a black low volume 384 well microtiter plate (Greiner Bio-One, Frickenhausen, Germany), 2 μl of a solution of Mps-1 in assay buffer [0.1 mM sodium-ortho-vanadate, 10 mM MgCl2, 2 mM DTT, 25 mM Hepes pH 7.7, 0.05% BSA, 0.001% Pluronic F-127] were added and the mixture was incubated for 15 min at 22° C. to allow pre-binding of the test compounds to Mps-1 before the start of the kinase reaction. Then the kinase reaction was started by the addition of 3 μl of a solution of 16.7 μM ATP and 1.67 μM peptide in assay buffer and the resulting mixture was incubated for a reaction time of 60 min at 22° C. The concentration of Mps-1 in the assay was adjusted to the activity of the enzyme lot and was chosen appropriate to have the assay in the linear range, typical enzyme concentrations were in the range of about 1 nM (final conc. in the 5 μl assay volume). The reaction was stopped by the addition of 3 μl of a solution of HTRF detection reagents (100 mM Hepes pH 7.4, 0.1% BSA, 40 mM EDTA, 140 nM Streptavidin-XLent [#61GSTXLB, Fa. Cis Biointernational, Marcoule, France], 1.5 nM anti-phospho(Ser/Thr)-Europium-antibody [#AD0180, PerkinElmer LAS, Rodgau-Jügesheim, Germany].
The resulting mixture was incubated 1 h at 22° C. to allow the binding of the phosphorylated peptide to the anti-phospho(Ser/Thr)-Europium-antibody. Subsequently the amount of phosphorylated substrate was evaluated by measurement of the resonance energy transfer from the Europium-labelled anti-phospho(Ser/Thr) antibody to the Streptavidin-XLent. Therefore, the fluorescence emissions at 620 nm and 665 nm after excitation at 350 nm was measured in a HTRF reader, e.g. a Rubystar (BMG Labtechnologies, Offenburg, Germany) or a Viewlux (PerkinElmer LAS, Rodgau-Jügesheim, Germany). The ratio of the emissions at 665 nm and at […] was taken as the measure for the amount of phosphorylated substrate. The data were normalised (enzyme reaction without inhibitor=0% inhibition, all other assay components but no enzyme=100% inhibition).
(Time-resolved FRET reads energy transfer from a long-lived donor to a nearby acceptor.)
Regarding `O=C(NC1CC1)c1ccc(-c2cnc3c(NC[C@@H](O)CO)nc4ccc(F)cc4n23)cc1Cl` (stereo in doubt) [Example 2-87, 2-chloro-N-cyclopropyl-4-{4-[(2,3-dihydroxypropyl)amino]-8-fluoroimidazo[1,2-a]quinoxalin-1-yl}benzamide], the half-maximal inhibitory concentration (IC50) worked out at 12.2 µM.

In the case of `Cc1cc2nc(NC[C@@H](O)CO)c3ncc(-c4ccc(C(=O)NC5CC5)cc4)n3c2cc1C` (stereo in doubt) [Example 2-158, N-cyclopropyl-4-{4-[(2,3-dihydroxypropyl)amino]-7,8-dimethylimidazo[1,2-a]quinoxalin-1-yl}benzamide], the IC50 was 0.0124 µM.

With `CC(C)CNc1nc2ccccc2n2c(-c3ccc(NC(=O)Nc4ccc(CN5CCN(C)CC5)c(C(F)(F)F)c4)cc3)cnc12` [Example 1-1, 1-[4-(4-isobutylamino-imidazo[1,2-a]quinoxalin-1-yl)-phenyl]-3-[4-(4-methyl-piperazin-1-ylmethyl)-3-trifluoromethyl-phenyl]-urea], the IC50 was 0.0559 µM.

Take `CC(C)CNc1nc2ccccc2n2c(-c3ccc(C(=O)NC4CC4)cc3)cnc12` [Example 1-2, N-cyclopropyl-4-(4-isobutylamino-imidazo[1,2-a]quinoxalin-1-yl)-benzamide]: the IC50 amounted to 0.0124 µM.

`CCNC(=O)Nc1ccc(-c2cnc3c(NCC(C)C)nc4ccccc4n23)cc1` [Example 1-3, 1-ethyl-3-[4-(4-isobutylamino-imidazo[1,2-a]quinoxalin-1-yl)-phenyl]-urea]: the IC50 is 20 µM.

For `CC(C)CNc1nc2ccccc2n2c(-c3ccc4c(c3)OCCO4)cnc12` [Example 1-4, 1-(2,3-dihydro-1,4-benzodioxin-6-yl)-N-(2-methylpropyl)imidazo[1,2-a]quinoxalin-4-amine], the concentration for half-maximal inhibition (IC50) was 2.86 µM.

Regarding `CC(C)CNc1nc2ccccc2n2c(-c3ccc(C(=O)O)cc3)cnc12` [Example 1-5, 4-{4-[(2-methylpropyl)amino]imidazo[1,2-a]quinoxalin-1-yl}benzoic acid], the IC50 is 11.9 µM.

Consider `CC(C)CNc1nc2ccccc2n2c(-c3ccccc3)cnc12` [Example 1-6, N-(2-methylpropyl)-1-phenylimidazo[1,2-a]quinoxalin-4-amine], for which the concentration for half-maximal inhibition (IC50) amounted to 8.18 µM.

For the compound `Cc1ccc(-c2cnc3c(NCC(C)C)nc4ccccc4n23)cc1` [Example 1-7, 1-(4-methylphenyl)-N-(2-methylpropyl)imidazo[1,2-a]quinoxalin-4-amine], the half-maximal inhibitory concentration (IC50) amounted to 5.36 µM.

For the compound `COc1cccc(-c2cnc3c(NCC(C)C)nc4ccccc4n23)c1F` [Example 1-8, 1-(2-fluoro-3-methoxyphenyl)-N-(2-methylpropyl)imidazo[1,2-a]quinoxalin-4-amine], the IC50 is 17.3 µM.

Consider `CC(C)CNc1nc2ccccc2n2c(-c3ccc(C(=O)N(C)C)cc3)cnc12` [Example 1-9, N,N-dimethyl-4-{4-[(2-methylpropyl)amino]imidazo[1,2-a]quinoxalin-1-yl}benzamide], for which the half-maximal inhibitory concentration (IC50) came to 15.2 µM.

For `CSc1ccc(-c2cnc3c(NCC(C)C)nc4ccccc4n23)cc1` [Example 1-10, N-(2-methylpropyl)-1-[4-(methylsulfanyl)phenyl]imidazo[1,2-a]quinoxalin-4-amine], the IC50 turned out to be 3.34 µM.

Consider `Cc1ccccc1-c1cnc2c(NCC(C)C)nc3ccccc3n12` [Example 1-11, 1-(2-methylphenyl)-N-(2-methylpropyl)imidazo[1,2-a]quinoxalin-4-amine], for which the IC50 is 13.9 µM.

Turning to `COc1ncc(-c2cnc3c(NCC(C)C)nc4ccccc4n23)cn1` [Example 1-12, 1-(2-methoxypyrimidin-5-yl)-N-(2-methylpropyl)imidazo[1,2-a]quinoxalin-4-amine], the half-inhibitory concentration (IC50) is 5.54 µM.

With `CC(C)CNc1nc2ccccc2n2c(-c3ccc4cc[nH]c4c3)cnc12` [Example 1-13, 1-(1H-indol-6-yl)-N-(2-methylpropyl)imidazo[1,2-a]quinoxalin-4-amine], the concentration for half-maximal inhibition (IC50) came to 2.01 µM.

On to `CC(C)CNc1nc2ccccc2n2c(-c3cccnc3F)cnc12` [Example 1-14, 1-(2-fluoropyridin-3-yl)-N-(2-methylpropyl)imidazo[1,2-a]quinoxalin-4-amine], for which the IC50 came to 9.73 µM.

As for `CC(C)CNc1nc2ccccc2n2c(-c3ccc(C(N)=O)cc3)cnc12` [Example 1-15, 4-{4-[(2-methylpropyl)amino]imidazo[1,2-a]quinoxalin-1-yl}benzamide], the 50% inhibitory concentration (IC50) came to 0.399 µM.

For `CC(C)CNc1nc2ccccc2n2c(-c3ccc(C(=O)N4CCCC4)cc3)cnc12` [Example 1-16, (4-{4-[(2-methylpropyl)amino]imidazo[1,2-a]quinoxalin-1-yl}phenyl)(pyrrolidin-1-yl)methanone], the IC50 turned out to be 3.67 µM.

Consider `CNC(=O)c1ccc(-c2cnc3c(NCC(C)C)nc4ccccc4n23)cc1` [Example 1-17, N-methyl-4-{4-[(2-methylpropyl)amino]imidazo[1,2-a]quinoxalin-1-yl}benzamide], for which the IC50 was 0.192 µM.

With `CC(C)CNc1nc2ccccc2n2c(-c3cnn(C)c3)cnc12` [Example 1-18, N-(2-methylpropyl)-1-(1-methyl-1H-pyrazol-4-yl)imidazo[1,2-a]quinoxalin-4-amine], the IC50 worked out at 12.1 µM.

For `CC(C)CNc1nc2ccccc2n2c(-c3cccc4cnccc34)cnc12` [Example 1-19, 1-(isoquinolin-5-yl)-N-(2-methylpropyl)imidazo[1,2-a]quinoxalin-4-amine], the 50% inhibitory concentration (IC50) came to 11.8 µM.

For `CNC(=O)c1cccc(-c2cnc3c(NCC(C)C)nc4ccccc4n23)c1` [Example 1-20, N-methyl-3-{4-[(2-methylpropyl)amino]imidazo[1,2-a]quinoxalin-1-yl}benzamide], the 50% inhibitory concentration (IC50) stood at 17.4 µM.

With `CC(C)CNc1nc2ccccc2n2c(-c3cccs3)cnc12` [Example 1-21, N-(2-methylpropyl)-1-(thiophen-2-yl)imidazo[1,2-a]quinoxalin-4-amine], the IC50 amounted to 3.31 µM.

With `CC(C)CNc1nc2ccccc2n2c(-c3ccsc3)cnc12` [Example 1-22, N-(2-methylpropyl)-1-(thiophen-3-yl)imidazo[1,2-a]quinoxalin-4-amine], the IC50 worked out at 5.14 µM.

With `CC(C)CNc1nc2ccccc2n2c(-c3ccccc3C(F)(F)F)cnc12` [Example 1-23, N-(2-methylpropyl)-1-[2-(trifluoromethyl)phenyl]imidazo[1,2-a]quinoxalin-4-amine], the 50% inhibitory concentration (IC50) was determined as 7.71 µM.

Take `CC(=O)c1ccc(-c2cnc3c(NCC(C)C)nc4ccccc4n23)cc1` [Example 1-24, 1-(4-{4-[(2-methylpropyl)amino]imidazo[1,2-a]quinoxalin-1-yl}phenyl)ethanone]: the half-inhibitory concentration (IC50) amounted to 2.6 µM.

`COc1ccc(-c2cnc3c(NCC(C)C)nc4ccccc4n23)cc1OC` [Example 1-25, 1-(3,4-dimethoxyphenyl)-N-(2-methylpropyl)imidazo[1,2-a]quinoxalin-4-amine]: the IC50 was found to be 13.6 µM.

For orientation: IC50 means the concentration that inhibits the measured activity by half.

The record behind these values is US8729082B2, “Substituted imidazoquinoxalines” (Bayer Intellectual Property GmbH, priority 2009, dated 2014).
